In publication PMC7571068, “Antiproliferative and Pro-Apoptotic Effect of Uvaol in Human Hepatocarcinoma HepG2 Cells by Affecting G0/G1 Cell Cycle Arrest, ROS Production and AKT/PI3K Signaling Pathway” (Molecules, 2020):
Values after ≈ are worked out from the molar mass of the structure shown.

Legend:
[1] = test system: lymphoma cells (U937); design: method as in PMID 21142067; conditions: U937, 10 and 100 µM; cited from earlier work
[2] = test system: HepG2 cells; experiment: MTT cytotoxicity assay; assay type: cell-based, human; conditions: for IC20 / IC50 / IC80: Homo sapiens, mean ± SEM (n = 9)
Experimental: MTT assay was performed as described by Pérez-Jiménez et al.. Briefly, samples containing 200 µL cell suspension (1 × 10^4 cells/well) were cultured in 96 well plates, in triplicate of three populations of the both cell lines. Subsequent to adherence of the cells within 12 h of incubation, Uvaol was added to the wells at a concentration between 0–140 μg/mL and maintained during 24, 48 and 72 h. MTT was dissolved in the medium and added to the wells at a final concentration of 0.5 mg/mL. Following 2 h of incubation, the generated formazan was dissolved in DMSO. Absorbance was measured at 570 nm in a multiplate reader (Bio-tek®, Winooski, VT, USA). The concentrations that caused 20%, 50% and 80% of inhibition of cell viability (IC20, IC50 and IC80) were calculated following the formula: % […] = (A0 − AT)/A0·100, where A0 is the control absorbance (100% of cell viability) and AT is de absorbance of the incubated cells with the different concentrations of uvaol. OriginPro 8 (OriginLab Corporation, Northampton, MA, USA) was used to performance a dose-response analysis by the following formula: y=A1+ A2− A1/1+10^(Log x0−x)p
In which Logx0 is the center of the curve, p the slope, A1 the lower asymptote and A2 the upper asymptote in the adjustment model described.

[3] = test system: MDA-MB-231 line; design: method as in PMID 25412049; conditions: cited from earlier work
[4] = test system: WRL68 cells; experiment: Wound healing (scratch) assay; assay type: cell-based, human; conditions: WRL68, IC50 concentration, 0-42 h
Experimental: (§1) The wound healing or scratch assay was used to assess the migration capacity of the WRL68 and HepG2 cell lines. With this objective, 3 × 10^5 cells were seeded per well in a 6-well plate in triplicate for each cell line. When the populations reached a confluence of 80–90%, a sterile pipette tip was used to disrupt in a straight line (make a wound) the layer of cells attached to the culture surface. Subsequently, it was washed with PBS to prevent the cells that had been lifted from being able to rejoin. […] Quantification of wound healing was performed by using the MRI-Wound Healing Tool for ImageJ software (ImageJ 1.53a version).

[5] = test system: HepG2 cells; experiment: Wound healing (scratch) assay; assay type: cell-based, human; conditions: HepG2, IC50 concentration, 0-42 h
Experimental: as §1

[6] = test system: WRL68 cells; experiment: Morphological changes, optical microscopy; assay type: cell-based, human; conditions: WRL68, IC50, 24 h
Experimental: Optical microscopy (Olympus® model CX22LED, Tokyo, Japan) images of the cultures were obtained in the mentioned conditions at 10 and 40 magnifications for the cell line each after 24 h of the treatment’s application.

[7] = test system: p53, c-Myc, Bcl-2, SOD, HSP-60 and Bax proteins in HepG2 cells; experiment: Western blot of protein expression; assay type: cell-based, human; conditions: HepG2, IC50, 24 h, normalized to actin
Experimental: (§2) Triplicates of three different populations of each cell line, WRL68 and HepG2, were seeded in 6-well plates with a density of 2.5 × 10^5 cells per well. […] For protein extraction, each sample was resuspended in 20 μL of RIPA buffer (150 mM NaCl, 1% Igepal, 0.5% deoxycholic acid, 0.1% SDS, 50 mM Tris HCl pH 7.5, 0.2 M PMSF, […] and Thermo Scientific® PierceTM inhibitor cocktail, Waltham, MA, USA), and held on ice for 15 min. They were centrifuged at 15,000× g for 10 min at 4 °C, the supernatant was collected and stored at −80 °C for further analysis. The quantification of the protein concentration was carried out through the Bradford method. The methodology used for Western blot analysis is described by Mokhtari et al.. Brie fly, the initial separation of the extracts was performed by a 12% polyacrylamide gel electrophoresis under denaturing conditions (SDS-PAGE). A standardized load of 30 μg of protein per well was used after denaturing the samples at 95 °C for 5 min and adding the loading buffer (0.25 mM Tris-HCl pH 6.8, 10% SDS, 1 M DTT and glycerol). The proteins were transferred, by the semi-dry transfer method, (60 mA per gel, 1 h) using the TransBlot Turbo system (BioRad®, Berkeley, CA, USA), to a PVDF membrane. The membranes were blocked with blocking buffer (TBS, 0.1% Tween-20 and 3% skimmed milk) for 1 h at room temperature, incubating with the specific primary antibodies against the proteins studied at 4 °C overnight. The primary antibodies (from Santa Cruz Biotechnology®, Dallas, TX, USA) were diluted in blocking buffer. The membranes were washed with TBS-T (TBS, 0.1% Tween-20) for 5 min three times under stirring, and incubated with the corresponding secondary antibody (from Sigma®, St. Louis, MO, USA) (Table 1) for 1 h at room temperature, repeating the previous washing process later. These secondary antibodies have the enzyme horseradish peroxidase (HRP) coupled, which allows chemiluminescence to be detected in the presence of the protein band due to its ability to oxidize the luminol solution (ECL-plus Western-blot detection system, GE Healthcare, Chicago, IL, USA). The reaction produced was captured inside a ChemiDoc Imaging System (Bio-Rad®, Berkely, CA, USA). The program used to analyze the images obtained was Image Lab Software (Bio-Rad®, for PC 6.1 version). The expression of each protein was normalized referring to actin levels and were represented based on the results obtained for the control situation (WRL68 line without treatment) as percentage of expression (%). The expression obtained in each protein was analyzed through the mentioned program in triplicate.

[8] = test system: p53, c-Myc, Bcl-2, SOD, HSP-60 and Bax proteins in WRL68 cells; experiment: Western blot of protein expression; assay type: cell-based, human; conditions: WRL68, IC50, 24 h, normalized to actin
Experimental: as §2

[9] = test system: MCF-7 line; design: method as in PMID 21142067; conditions: MCF-7, 44.27 μg/mL, same phase = G0/G1; cited from earlier work

## C[C@H]1[C@H](C)CC[C@]2(CO)CC[C@]3(C)C(=CC[C@@H]4[C@@]5(C)CC[C@H](O)C(C)(C)[C@@H]5CC[C@]43C)[C@H]12 [uvaol, urs-12-ene-3,28-diol]
[1]
  induction of apoptosis: induced apoptosis
[2]; 24 h IC50 WRL68 vs HepG2
  IC50 in control cells (WRL68) relative to tumor cells (HepG2): more than twice
[2]; HepG2, 24 h exposure
  IC20: 8.2 ± 1.8 µg/mL (≈ 18.5 µM)
  IC50: 25.2 µg/mL (≈ 56.9 µM)
[2]; HepG2, 48 h exposure
  IC20: 6.4 ± 0.4 µg/mL (≈ 14.5 µM)
  IC50: 20 ± 0.3 µg/mL (≈ 45.2 µM)
  IC80: 61.7 ± 5.3 µg/mL (≈ 139 µM)
[2]; HepG2, 72 h exposure
  IC20: 4 ± 0.2 µg/mL (≈ 9.03 µM)
  IC50: 14.1 ± 1 µg/mL (≈ 31.8 µM)
  IC80: 39.2 ± 2.4 µg/mL (≈ 88.5 µM)
[3]
  changes in cell cycle progression: did not produce changes in the progression of the cycle
[4]
  wound closure (cell migration): wound healing was maintained during more hours than the control group
[5]
  wound closure (cell migration): the wound remains until the end of the trial
[6]
  cell morphology change: become rounded and have cytoplasmic projections
[7]
  Bax expression vs control: increased
  Bcl-2 expression vs control: decreased
  HSP-60 expression vs control: increased in both lines
  SOD expression vs control: remained unchanged
  c-Myc expression vs control: maintained
  p53 expression vs control: remained unchanged
[8]
  Bax expression vs control: did not produce changes
  Bcl-2 expression vs control: did not produce changes
  HSP-60 expression vs control: increased in both lines
  SOD expression vs control: increased
  c-Myc expression vs control: increase
  p53 expression vs control: increased
[9]
  cell cycle arrest: arrest in the same phase of the cycle
